These compounds were tested against T1, m7GpppX diphosphatase (Homo sapiens, UniProt Q96C86) (assay: Biochemical Assay).
T1 sequence (Q96C86 whole entry): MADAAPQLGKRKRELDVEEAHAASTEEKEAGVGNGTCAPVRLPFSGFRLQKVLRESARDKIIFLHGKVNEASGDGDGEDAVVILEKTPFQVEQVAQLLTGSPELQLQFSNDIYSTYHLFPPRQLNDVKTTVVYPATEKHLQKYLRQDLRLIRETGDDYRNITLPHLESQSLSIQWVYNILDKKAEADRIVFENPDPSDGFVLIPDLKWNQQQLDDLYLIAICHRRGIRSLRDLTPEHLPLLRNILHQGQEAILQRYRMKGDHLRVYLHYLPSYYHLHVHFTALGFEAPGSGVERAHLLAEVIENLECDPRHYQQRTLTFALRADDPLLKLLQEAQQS
Excerpt: In vitro biochemical assay using scavenger decapping enzyme (DcpS) as a target and cell based assay using SMN2 b-lactamase NSC-34 cell reporter gene.

For `Nc1nc(N)c2c(COc3ccccc3I)cccc2n1` [D153215], which EC50 is on record?
The EC50 was 243 nM.

With `CC(=O)Nc1nc(CN2CCC(COc3cccc4nc(N)nc(N)c34)CC2)cs1` [D156676] as the compound, how does the EC50 read?
The EC50 was 2540 nM.

And the IC50?
The IC50 was 339 nM.

For `Nc1nc(N)c2c(OCC3CCN(CC4CCNCC4)CC3)cccc2n1` [D157554], which EC50 is on record?
The EC50 was 921 nM.

What does the source list for `Cn1ccnc1CN1CCC(COc2cccc3nc(N)nc(N)c23)CC1` [D157555]?
EC50: 108 nM; IC50: 9.38 nM

What does the source list for `Nc1nc(N)c2c(OCC3CCN(c4ccccc4Cl)CC3)cccc2n1` [D158885]?
EC50: 795 nM; IC50: 101 nM

What does the source list for `Nc1nc(N)c2c(OCC3CCN(CC(F)(F)F)CC3)cccc2n1` [D158963]?
EC50: 223 nM; IC50: 23.4 nM
